Test results reported in patent US20200368247A1, “CENICRIVIROC FOR THE TREATMENT OF FIBROSIS” (Tobira Therapeutics, Inc., priority 2014, published 2020).

Tests used:
HIV-1 [1] = experiment: Study 201 PK/PD Emax model; format: in vivo, human
From the text: Drug response was characterized using the following maximum effect (Emax) model:
where E is effect, E0 is the baseline effect (fixed to 0), Imax is the maximum inhibition, C denotes the PK variable (AUC0-24, Cmax, or steady-state concentration [Css]), IC50 is the value of the PK variable which corresponds to 50% of the maximum inhibition and y is the shape parameter which describes the degree of sigmoidicity.

NASH mice = experiment: STAM mouse model of NASH, anti-HCC effects, week 18; conditions: for Body weight / Maximum diameter of visible tumor nodules (mm) / mice with GS-positive nodules / mice with HCC lesions (HE staining): week 18; for mice that died (survival analysis): 6 to 18 weeks
Experimental: Group 1-Vehicle: Eighteen NASH mice were orally administered vehicle at a volume of 10 mL/kg twice daily (9:00 and 19:00) from 6 weeks of age.

[2] = Study 201 safety (adverse events, laboratory); format: in vivo
Experimental: Participants were required to be antiretroviral treatment-experienced, CCR5 antagonist-naive, with HIV-1 RNA levels of at least 5000 copies/mL and CD4+ cell counts of at least 250 cells/mm^3 was performed.
There were no deaths, SAEs, or other significant AEs, and there were no discontinuations because of an AE. Most treatment-emergent AEs were mild or moderate in severity. […] The most common (≥10%) treatment-emergent AEs in this study were nausea (18.5%), diarrhea (16.7%), headache (14.8%), and fatigue (11.0%).
There were 6 subjects with ALT and/or AST elevations in the 25 mg (2 subjects), 50 mg (2 subjects), 100 mg (1 subject), and 150 mg (1 subject) dose groups, and 1 subject with an AST elevation in the placebo group during the observation period. All elevations were Grade 1, were isolated except in 2 subjects (both in the 50-mg dose group) who had more than a single elevation, and resolved without sequelae. […] The AST elevations observed in subjects in the 100 mg and 150 mg dose groups during treatment (observed in 1 subject in each dose group), returned to normal values during continuation of treatment.

HIV-1 [3] = experiment: Study 201 drug resistance testing; format: in vivo, human; conditions: Baseline, Day 7, Day 40; subjects with evaluable samples
Experimental: In Study 201, drug resistance testing was performed at Baseline, Day 7, and Day 40 (or at the “Early Termination” visit, if applicable).

[4] = Chronic (3- and 9-month) monkey toxicity studies; format: in vivo; conditions: 1000 mg/kg/day, 3- and 9-month monkey studies
[5] = test system: RANTES-induced Ca2+ mobilization; experiment: RANTES-induced Ca2+ mobilization; format: cell-based
[6] = test system: male CD-1 mice with unilateral ureter occlusion; experiment: Mouse UUO model of renal fibrosis; format: in vivo
Experimental: Test animals were allocated to weight-matched treatment groups on the day prior to the surgical procedure (Day −1). Male CD-1 mice (N=51; age, 7-8 weeks) underwent either sham surgery or total ligation of the right ureter, i.e. UUO, via aseptic laparotomy (FIG. 12). […] Another group received the anti-transforming growth factor TGF-β1 antibody, compound 1D11 (positive control) at 3 mg/kg/day from Days −1 to 4, injected intraperitoneally once daily, and vehicle control from Days 0 to 5. […] On Day 5, animals were anaesthetised, blood and tissues were collected prior to sacrifice.
Study endpoints included: a) body and kidney weights; b) fibrosis in obstructed kidney evaluated via histological quantitative image analysis of picrosirius red staining (ten images/depth/kidney obtained and assessed in a blinded fashion using light microscopy [at 200×] to enable sampling of 60-70% of the renal cortical area) and quantified by a composite Collagen Volume Fraction (CVF [% total area imaged]) score expressed as the average positive stain across three anatomically distinct ([…] apart) tissue sections, or depths, from the obstructed kidney; c) hydroxyproline content of frozen renal cortical tissue biopsies as assessed by biochemical analyses; d) mRNA expression of profibrotic and inflammatory biomarkers (including MCP-1, Collagen 1a1, Collagen 3a1, TGF-β1, Fibronectin-1, α-smooth muscle actin (α-SMA) and connective tissue growth factor-1 (CTGF-1); assessed via Luminex® (Life Technologies™, Carlsbad, Calif., USA) assay with relative expression normalised to HPRT (hypoxanthine phosphoribosyltransferase).
Data are expressed as mean±standard error of mean (SEM). Statistical analyses were performed using GraphPad Prism® (GraphPad Software, Inc., San Diego, Calif., USA). Treatment differences between sham-surgery+vehiclecontrol and UUO+vehicle-control groups, and between UUO+vehicle-control and UUO+compound-1D11 (positive control) groups, were analysed by unpaired t-Test. Treatment differences between UUO+vehicle-control and CVC-dose groups were analysed by one-way ANOVA (analysis of variance) with Dunnett's test (post-hoc).

[7] = Phase 1 studies in healthy volunteer subjects; format: in vivo, human
From the text: The frequency and magnitude of transaminase elevations observed across these studies was consistent with the pattern described for Phase 1 studies in scientific literature. […] In both studies and at all doses CVC presented a favorable adverse event profile. […] No clinically relevant changes in ECG parameters or changes for any vital sign parameters were observed during the 48-week treatment period. No apparent dose or exposure relationship for adverse events, laboratory abnormalities (including CPK, ALT, AST and bilirubin elevations) or dose-limiting toxicities were observed.

[8] = CVC-high 100 mg/kg/day, listed as Cenicriviroc
[9] = CVC-low 20 mg/kg/day, listed as Cenicriviroc
[10] = CVC 7 and 20 mg/kg/day, compound 1D11

In the case of `CCCCOCCOc1ccc(-c2ccc3c(c2)/C=C(/C(=O)Nc2ccc([S@@+]([O-])Cc4cncn4CCC)cc2)CCCN3CC(C)C)cc1` [CVC, (S)-8-[4-(2-Butoxyethoxy)phenyl]-1-isobutyl-N-(4-{[(1-propyl-1H-imidazol-5-yl)methyl]sulfinyl}phenyl)-1,2,3,4-tetrahydro-1-benzazocine-5-carboxamide], the “percent of the maximum inhibitory effect at average Css” value (HIV-1 [1]; 25 mg) is reported as 54.9%, the “percent of the maximum inhibitory effect at average Css” value (HIV-1 [1]; 50 mg) is reported as 79.8% and the “percent of the maximum inhibitory effect at average Css” value (HIV-1 [1]; 75 mg) is reported as 85.9%. The “percent of the maximum inhibitory effect at average Css” value (HIV-1 [1]; 150 mg) was 95.9%, the “Emax in the PK/PD model (HIV-1 RNA)” value (HIV-1 [1]; Emax model) was −1.43 log10 copies/mL and the “Body weight” value (NASH mice; CVC-high 100 mg/kg/day) was 20.8 ± 2.7 g. For the same molecule, the “Maximum diameter of visible tumor nodules (mm)” value (“Maximum diameter” for short) (NASH mice; CVC-high 100 mg/kg/day) was 5.3±5.1 mm, the “Body weight” value (NASH mice; [8]) was 20.8 ± 2.7 g and the “Maximum diameter” value (NASH mice; [8]) was 5.3 ± 5.1 mm. For the same molecule, the “mice that died (survival analysis)” value (NASH mice; CVC-high) was “Five out of twelve”, the “mice with GS-positive nodules” value (NASH mice; CVC-high) was “seven out of seven” and the “mice with HCC lesions (HE staining)” value (NASH mice; CVC-high) was “six out of seven”. For the same molecule, the “Body weight” value (NASH mice; CVC-low 20 mg/kg/day) was 22.9 ± 3.5 g, the “Maximum diameter” value (NASH mice; CVC-low 20 mg/kg/day) was 4.8±5.4 mm and the “Body weight” value (NASH mice; [9]) was 22.9 ± 3.5 g. The “Maximum diameter” value (NASH mice; [9]) was 4.8 ± 5.4 mm, the “mice that died (survival analysis)” value (NASH mice; CVC-low) was “Six out of twelve” and the “mice with GS-positive nodules” value (NASH mice; CVC-low) was “five out of six”. The “mice with HCC lesions (HE staining)” value (NASH mice; CVC-low) was “five out of six”, the “subjects with ALT and/or AST elevations (Grade 1)” value (from here on “subjects”) ([2]; 25 mg) was 2 subjects and the “subjects” value ([2]; 50 mg) was 2 subjects. The “subjects” value ([2]; 100 mg) was 1 subject, the “subjects” value ([2]; 150 mg) was 1 subject and the tolerability ([2]; 25 to 150 mg once daily, 10 days) was “generally well tolerated at the doses studied”. The “drug susceptibility of virus” value (HIV-1 [3]) was “fully susceptible”, the “inflammation in clinical pathology parameters or tissue incl. liver” value [4] was “No indication of inflammation” and the “RANTES-induced Ca2+ mobilization” value [5] was “blocked”. The “effect on body weight” value ([6]; CVC 7 mg/kg/day, compound 1D11 3 mg/kg/day, Day 5) was “no effect on body weight”, the “tolerability in UUO mice” value ([6]; CVC 100 mg/kg/day) was “terminated early due to moribundity” and the “effect on obstructed kidney hydroxyproline content” value ([6]; CVC 7 and 20 mg/kg/day) was “Neither dose of CVC tested affected UUO-induced increases”. The “Collagen 1a1, Collagen 3a1, TGF-β1 and Fibronectin-1 mRNA expression vs UUO+vehicle-control” value [6, 10] was “did not reach statistical significance”, the “MCP-1, α-SMA and CTGF-1 mRNA expression vs UUO+vehicle-control” value [6, 10] was “did not have significant effects” and the “generally well tolerated multiple daily doses” value ([7]; Phase 1, 10 days) was “up to 200 mg”. The “generally well tolerated single doses” value ([7]; Phase 1, healthy volunteers) was “up to 800 mg”.
